Laboratory results: ChEMBL document CHEMBL4342403, “New evolutions in the BACE1 inhibitor field from 2014 to 2018” (Bioorg Med Chem Lett, 2019)

Tests used:
Rattus norvegicus [1] = assay: In vivo inhibition of BACE1 in Sprague Dawley rat assessed as reduction in amyloidbeta 40 level in brain at 10 mg/kg, po measured at 4 hrs post dose by sandwich ELISA relative to control; assay type: functional
Cathepsin D = Cathepsin D (Homo sapiens, UniProt P07339); assay: Inhibition of recombinant Cathepsin D (unknown origin) expressed in CHO cells preincubated for 1 hr followed by substrate addition and measured after 1 hr by FRET assay; assay type: cell-based
Beta-secretase 1 [2] = target: T1, Beta-secretase 1 (Homo sapiens, UniProt P56817); assay: Inhibition of BACE1 (unknown origin) assessed as reduction in amyloidbeta 40 level after 24 hrs by cell-based sandwich ELISA
Beta-secretase 1 [3] = target: T1, Beta-secretase 1; assay: Inhibition of BACE1 (unknown origin) preincubated for 1 hr followed by substrate addition and measured after 1 hr by FRET assay
Rattus norvegicus [4] = assay: In vivo inhibition of BACE1 in Sprague Dawley rat assessed as reduction in amyloidbeta 40 level in CSF at 10 mg/kg, po measured at 4 hrs post dose by sandwich ELISA relative to control; assay type: functional

T1 sequence (P56817 whole entry): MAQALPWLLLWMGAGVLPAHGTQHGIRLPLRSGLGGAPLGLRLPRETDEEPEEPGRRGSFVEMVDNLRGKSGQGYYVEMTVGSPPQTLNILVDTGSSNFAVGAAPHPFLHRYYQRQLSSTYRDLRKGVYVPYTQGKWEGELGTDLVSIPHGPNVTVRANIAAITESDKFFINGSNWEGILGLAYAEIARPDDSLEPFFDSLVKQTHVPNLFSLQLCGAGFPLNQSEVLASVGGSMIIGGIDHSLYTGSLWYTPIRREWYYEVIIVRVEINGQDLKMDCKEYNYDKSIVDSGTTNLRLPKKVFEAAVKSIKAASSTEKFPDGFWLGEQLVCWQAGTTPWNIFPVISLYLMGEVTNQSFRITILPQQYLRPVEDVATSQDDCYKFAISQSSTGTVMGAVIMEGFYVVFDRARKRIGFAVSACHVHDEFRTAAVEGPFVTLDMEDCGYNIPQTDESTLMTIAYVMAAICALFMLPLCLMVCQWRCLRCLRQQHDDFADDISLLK
Chain of Cathepsin D (P07339 65-162 limits assumed): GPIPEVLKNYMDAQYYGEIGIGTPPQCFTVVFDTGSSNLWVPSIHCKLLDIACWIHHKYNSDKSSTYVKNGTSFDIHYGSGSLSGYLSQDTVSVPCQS
Chain of Cathepsin D (P07339 169-412 limits assumed): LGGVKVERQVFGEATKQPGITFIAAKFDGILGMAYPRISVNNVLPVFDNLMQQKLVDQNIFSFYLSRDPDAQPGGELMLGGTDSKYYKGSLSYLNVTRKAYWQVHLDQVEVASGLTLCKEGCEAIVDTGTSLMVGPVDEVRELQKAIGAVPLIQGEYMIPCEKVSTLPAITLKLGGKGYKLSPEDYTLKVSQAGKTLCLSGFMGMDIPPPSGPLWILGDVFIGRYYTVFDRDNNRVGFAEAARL

Cc1cc(Cl)cnc1C(=O)Nc1ccc(F)c([C@@]2(C)N=C(N)[C@]3(C)CC[C@H]2S3(=O)=O)c1
inhibition in vivo at 10 mg/kg (Rattus norvegicus [1]): 66% | IC50 (Cathepsin D): 1740 µM | IC50 (Beta-secretase 1 [2]): 0.002 µM | IC50 (Beta-secretase 1 [3]): 0.002 µM | inhibition in vivo at 10 mg/kg (Rattus norvegicus [4]): 76%
